Laboratory results as given in US10973815B2, “Delta opioid agonist mu opioid antagonist compositions and methods for treating Parkinsons disease” (priority 2016, dated 2021).

Assays:
[1] = tested on: MPTP-lesioned primate (marmosets) model of Parkinson's disease; details: 10 mg/kg i.p.; without attenuation of the anti-parkinsonian actions of L-DOPA; cited from earlier work
[2] = tested on: MPTP-treated marmosets; details: similar dose levels (10 mg/kg); cited from earlier work
[3] = tested on: mice; details: cited from earlier work
[4] = tested on: rats; details: cited from earlier work
[5] = tested on: rats treated with reserpine or dopamine receptor antagonists (haloperidol or SCH23390); details: 10 mg/kg i.p.; cited from earlier work
[6] = tested on: unilateral 6-OHDA-lesioned Rats; assay: Postural asymmetry and dyskinesia (AIMs) on repeated dosing in unilateral 6-OHDA-lesioned rats; format: in vivo, rat; details: 6 mg/kg i.p. daily for 15 days
[7] = tested on: MPTP-lesioned cynomolgus macaques; assay: Acute DPI-289 in combination with low-dose L-DOPA, versus high-dose L-DOPA, in MPTP-lesioned macaques with L-DOPA-induced dyskinesia; format: in vivo, Macaca fascicularis; details: high dose L-DOPA alone (about 30 to 31 mg/kg)
From the text: This study utilized female MPTP-lesioned cynomolgus macaques that have received chronic repeat-treatment with L-DOPA and manifested stable and reproducible dyskinesia, of choreic and dystonic nature, in response to subsequent L-DOPA-treatments. Eight cynomolgus monkeys (Macaca fascicularis, 7.6-13.1 years of age, 3.0-4.5 kg) were used in this study. In a prior experiment, for each individual animal a low and high dose of L-DOPA was established such that the low dose (LD1) provided modest anti-parkinsonian action (1-2 h) and elicited predominantly non-disabling dyskinesia, the high dose (LDh) provided the best anti-parkinsonian effect achievable but also elicited disabling dyskinesia and an anti-parkinsonian benefit of 2-3 h duration
The behavioral effects of acute DPI-289 administered in combination with low-dose L-DOPA (LD1) were assessed. Also higher dose of L-DOPA was also assessed without the addition of DPI-289. The low dose (LD1) was about 10 to 11 mg/kg of L-DOPA which is considered to be sub-optimal in terms of anti-parkinsonian benefit. The dose of DPI-289 was 20 mg/kg and the high dose of L-DOPA was about 30 to 31 mg/kg and considered to an optimal does in terms of anti-parkinsonian benefit but with disabling dyskinesia. The DPI-289 was administered one (1) hour prior to the L-DOPA and start of observation. Activity counts were collected and parkinsonian disability and dyskinesia was assessed via post-hoc analysis of video-recordings by a movement disorder neurologist blinded to treatment.
On the day before behavioral observations, food was removed overnight, from 5 p.m. On days of behavioral assessment, treatment was administered to the animals in their home cage at approximately 9 a.m. A 6 h period of observation then commenced 1 h after oral dosing.
The animals were rendered parkinsonian by once daily subcutaneous injection of 0.2 mg/kg MPTP, administered for 8-12 days, until the first appearance of parkinsonism symptoms. After this time, a parkinsonian syndrome reached a moderate to marked level, over approximately 30 days, and stabilized. Additional administrations of MPTP were given to some animals to titrate to similar degrees of parkinsonism in individuals across the group. […] Sixty days after commencing MPTP administration, L-DOPA (25 mg/kg) was administered orally twice daily for at least two months. L-DOPA was given with the decarboxylase inhibitor benserazide (as Madopar™). This treatment leads to the development of motor fluctuations, including dyskinesia.

COc1cccc2c1[C@]13CCN(CC4CC4)[C@H](C2)[C@]1(OC)CCC(=O)C3 [cyprodime]
L-DOPA-induced dyskinesia [1]: reduce completely L-DOPA-induced dyskinesia

C=CCN1C[C@H](C)N([C@H](c2ccc(C(=O)N(CC)CC)cc2)c2cccc(OC)c2)C[C@H]1C [SNC80]
motor activity, bradykinesia and disability scores [2]: restored motor activity, bradykinesia and disability scores to normal
parkinsonian posture [2]: not statistically reversed
convulsions [3]: seizure-like convulsions
convulsions [4]: seizure-like convulsions
behavioral deficits (ambulatory behavior, grooming, rearing, social interaction and exploration, static investigation) [5]: restored behavioral deficits

N[C@@H](Cc1ccc(O)c(O)c1)C(=O)O [L-DOPA, reference compound]
postural asymmetry [6]: reduced or reversed the postural asymmetry
dyskinesia [7]: severe dyskinesia in the first three hours after dosage
parkinsonian disability [7]: parkinsonian disability increased in the last four to six hours
